The text below walks through data of US6479466B1, “Compositions for treating viral infections, and methods therefor” (University of Maryland, priority 1999, dated 2002).

Where a name gives a salt, the structure may show the parent alone. Read-outs that look alike come from different tables or passages of the source. A value given as a limit tells only on which side of the number the result lay.

Data set [1] relates to HTLV-IIIB. Briefly: p24 antigen production in PHA-activated PBMCs infected with HTLV-IIIB. Format: cell-based, HIV-1. The conditions noted are these: for IC90: read-out: IC90 (concentration of nucleoside analog that reduced the p24 antigen value of the untreated control by 90%). From the text:
The antiviral activities of RV alone and in combination with nucleoside analogs were investigated in PHA-stimulated PBMCs from seronegative donors. RV, ddC, ddI, and AZT were purchased from Sigma (St. Louis, Mo.). The HIV-1 T-cell line adapted isolate HTLV-IIIB was obtained from Dr. Gallo, at the National Institutes of Health AIDS Research and Reference Reagent Program (Catalog #398, Rockville, Md.). Primary strains of HIV-1 were isolated by coculturing 10^7 patient PBMC with an equal number of PHA-stimulated PBMC from a normal donor. Titration of stocks and MT-2 phenotype determination were carried out as described (ACTG Virology Manual, NIH Pub No. 94 3828, 1994). The SI phenotype was determined by assessing viral growth and syncytia formation in the MT-2 cell line obtained from Dr. Richman at the National Institutes of Health AIDS Research and Reference Reagent Program (Catalog #237, Rockville, Md.).
Primary PBMCs were separated from whole blood of HIV seronegative donors by density centrifugation over Ficoll-Hypaque (Sigma). The culture medium consisted of RPMI supplemented with 10% fetal bovine serum (FBS), 2 mM glutamine and penicillin/streptomycin (Gibco, Grand Island, N.Y.).
For infection studies involving PBMCs, cells were stimulated with 2.5 or 10 μg/ml phytohemagglutinin (PHA; Boehringer Mannheim, Indianapolis, Ind.) for 3 days. Stimulated PBMCs were infected by incubation with virus at a multiplicity of infection of 1000 TCID50/10^6 PBMC for 2 hours. PBMCs were then washed three times with PBS and cultured in 5% CO2 at 37° C., in RPMI/10% FBS supplemented with 10 units/ml IL-2 (Boehringer Mannheim) and drugs as appropriate. PBMCs were seeded in 96-well flat-bottom plates at a density of 2×10^5 PBMCs/200 μl. Following 3 days of culture half of the medium was replaced with fresh medium containing IL-2 and drugs. After 7 days of culture, HIV-1 p24 antigen production in the culture supernatant was assayed by ELISA (Coulter, Hialeah, Fla.). The concentration of nucleoside analog, alone and in combination with resveratrol, that reduced the p24 antigen value of the untreated control by 90% (IC90) was calculated by using nonparametric regression analysis. The analysis used the median-effect equation, Fa=1/[1+(Dm/D)]^m, where D is the dose, Fa is the fraction affected, and Dm is the dose required to produce the median effect.
Cells were infected with the T-cell tropic isolate HTLV-IIIB for 2 hours, and then cultured in varying concentrations of RV with or without nucleoside analogs. Virus replication was measured by p24 antigen production by ELISA using a standard commercial kit in the culture supernatants on days 7 and 10 after infection.
Activated PBMCs infected with HTLV-IIIB were cultured in the presence of ddI plus HU (100 μM) or RV (5 and 10 μM). […] Virus production in the presence of the different drug concentrations was evaluated on day 7 after infection.

The next data set has as its system PHA-stimulated PBMCs. As to the kind of experiment: MTT cell proliferation assay in PHA-stimulated PBMCs. Format: cell-based, human. The conditions noted are these: human, 5 days, 100 μM. As to the method: The effect of RV and […] on PBMC proliferation at the concentrations shown to enhance the anti-HIV effect of ddI were examined. Cellular proliferation in culture in the presence or absence of drugs was measured by commercial MTT assay, according to the manufacturer's instructions (Boehringer Mannheim). Cell viability was determined by trypan blue staining.
Proliferation was measured on PHA-stimulated PBMCs cultured in the presence of IL-2, 2 μM ddI, and RV or HU. The MTT assay was performed on days 2 and 5 (FIG. 8), and days 2 and 7 (FIG. 20) after the addition of the drugs. […] On day 5, RV at 10 μM inhibited proliferation by 30%, whereas HU inhibited proliferation by 40 to 50%, depending on the donor.
Proliferating PBMCs were cultured in the presence of RV or HU for 5 days. On day 2 and 5 an MTT assay and a ^3H-thymidine incorporation assay were performed. The MTT is a […] assay that measures cellular metabolic activity and directly correlates to the number of cells in the culture. The ^3H-thymidine incorporation assay relies on the incorporation of the radioactive nucleoside ^3H-thymidine into newly synthesized DNA. […] These differences between the effects of RV and HU were even more striking in the MTT and ^3H-thymidine incorporation assays conducted on day 5 (FIG. 12 and FIG. 13, respectively).

A further data set relates to PHA-activated PBMCs. Briefly: 3H-thymidine incorporation (DNA synthesis) assay in proliferating PBMCs. The conditions noted are these: HU 100 μM; day 2. Format: cell-based, human. In general terms: Uptake of a labelled nucleoside into DNA is a usual measure of proliferation.
Data set [2] relates to mutations 65R, 74V, 184V, and 115F in the RT gene. The conditions noted are these: cited from earlier work.
Data set [3] relates to HTLV-IIIB. Briefly: p24 antigen in infected resting T-lymphocytes exposed to drugs for 6 days before PHA activation. The conditions noted are these: ddC 0.1 μM or AZT 4 μM in combination with RV. Format: cell-based, HIV-1. As to the method: The effect of RV and nucleoside analogues in infected resting T-lymphocytes was evaluated in the present example. Purified resting cells were used. Absence of activated lymphocytes in the preparation was determined by incubation of the cells in the presence of a monoclonal antibody directed against the low affinity IL-2 receptor CD25 (Pharmingen, San Diego, Calif.), and subsequent analysis by flow cytometry. […] Cells were infected with HTLV-IIIB at a multiplicity of infection of 10^4 TCID50/10^6 cells for 3 hours. A high multiplicity of infection (m.o.i.) was used because of a reported short half life of HIV-1 unintegrated DNA in infected resting lymphocytes. Infected cells were washed 3 times with PBS to remove virus excess and resuspended in 10% FBS RPMI medium supplemented with drugs. To ensure that any antiviral activity exerted by the drugs occurred during the resting state, drugs were removed six days after infection by washing with PBS 3 times, and cells were activated by culturing in the presence of PHA for 2 days. Cells were then cultured in IL-2 medium without drugs, and supernatants were monitored for the presence of p24 antigen. Cultures were maintained for 20 days.
Purified resting T-lymphocytes from a seronegative donor were infected with HTLV-IIIB at the high multiplicity of infection and cultured in the presence of 5 or 10 μM RV plus ddI (0, 0.25, 0.5 μM), ddC (0, 0.1 μM) or AZT (0, 4 μM) for 6 days. Concentrations used for ddC and AZT correspond to the highest, nontoxic concentration attainable in plasma of treated individuals. […] On day 6 after infection, drugs were washed away and cells were activated with PHA. The extent of viral replication was evaluated on day 6 (prior to PHA activation) and days 14 and 20 after infection. On day 6 very low amounts of p24 antigen could be detected under every condition tested, likely representing residual virus from the infecting inoculum. […] No toxicity was found by the MTT assay in uninfected culture controls treated with 5 μM RV and 0.5 μM ddI for 20 days under the same conditions.

By inhibition is commonly meant how much of the control response was suppressed.

As for `NC(=O)NO` [HU, Hydroxyurea], in the data set on HTLV-IIIB [1] (HU 100 μM alone, day 7), the “reduction of virus production” value is reported as “approximately 20%”. The inhibition at 100 µM was over 99% in the data set on HTLV-IIIB [1] (Human immunodeficiency virus 1, IIIB, PBMC, 168 h, 100 μM HU combined with 0.5 μM ddI, day 7, read-out: inhibition of virus replication) and 91% with HTLV-IIIB [1] (Human immunodeficiency virus 1, IIIB, PBMC, 168 h, 100 μM HU in combination with 0.25 μM ddI, day 7, read-out: inhibition of HIV-1 replication). In the data set with PHA-stimulated PBMCs, this compound had an inhibition of proliferation of 40 to 50%. In the data set on PHA-activated PBMCs, the “3H-thymidine incorporation (DNA synthesis)” value is recorded as “much lower than the untreated control”.
For `Nc1nc(NC2CC2)c2ncn([C@H]3C=C[C@@H](CO)C3)c2n1` [abacavir, (1C, CiS)-4-(2-amino-6-(cyclopropylamino)—9H-purin-9-yL)-2-cyclopentene-1-methanol sulfate (salt) (2:1)], the “resistance to the drug” value in data set [2] (mutants harboring 2 or 3 of these mutations) was “approximately 10 fold”. Also, the decrease in susceptibility in data set [2] (single mutations 65R, 74V, 184V, and 115F) was 2-3 fold.
Regarding `Cc1cn([C@H]2C[C@H](N=[N+]=[N-])[C@@H](CO)O2)c(=O)[nH]c1=O` [AZT, 3′-azido-2′,3′-dideoxythymidine], the IC90 was 15 nM in the data set with HTLV-IIIB [1] (Human immunodeficiency virus 1, IIIB, PBMC, 168 h, in combination with 5 μM RV, day 7) and 25 nM in the data set with HTLV-IIIB [1] (Human immunodeficiency virus 1, IIIB, PBMC, 168 h, nucleoside analog alone, day 7). Besides, the “reduction of IC90 value” is on record as 1.6 fold in the data set with HTLV-IIIB [1] (in combination with 5 μM RV) and 3.1 fold with HTLV-IIIB [1] (in the presence of 10 μM RV). Besides, in the data set with HTLV-IIIB [3], the “virus replication after PHA activation” value is given as “failed to suppress virus replication”.
As for `Nc1ccn([C@H]2CC[C@@H](CO)O2)c(=O)n1` [ddC, 2′,3′-dideoxycytosine], the “reduction of IC90 value” amounted to 3.3 fold in the data set on HTLV-IIIB [1] (in combination with 5 μM RV) and 5.4 fold in the data set with HTLV-IIIB [1] (in the presence of 10 μM RV). Moreover, the IC90 in the data set with HTLV-IIIB [1] (in combination with 5 μM RV, day 7) was found to be 80 nM; with HTLV-IIIB [1] (nucleoside analog alone, day 7), 270 nM. Moreover, in the data set with HTLV-IIIB [3], the “virus replication after PHA activation” value is “failed to suppress virus replication”.
